Test results taken from PMC6022977, “Specificity of Induction of Glycopeptide Antibiotic Resistance in the Producing Actinomycetes” (Antibiotics, 2018).
In brackets after ≈: the same amount, converted by molar mass. Where two headings read alike, the source gives them in different places. Positions of bridges follow the written chain, without caps; N, C: chain ends. Non-standard residues stand in square brackets, D forms with d. Residues, ends and D or L forms follow the SMILES beside them. *: point of attachment. Ileψ(thiazoline)Cys = CC[C@H](C)[C@H](N)C1=N[C@H](C(=O)*)CS1; dOrn = NCCC[C@@H](N)C(=O)O

What was measured:
[1] = test system: S. coelicolor ∆vanRS; test: MIC on solid media, S. coelicolor ∆vanRS; type: cell-based, Streptomyces coelicolor; conditions: MS agar plates, 10^7 CFU sonicated hyphae, 28 °C, 10 days, average of three independent experiments
Experimental: (§1) MICs were measured on solid media, since the standard broth dilution method used in unicellular bacteria to determine MICs by turbidity is compromised in mycelial actinomycetes by the formation of multicellular aggregates and by the coexistence of cells in different physiological states (e.g., vegetative mycelium, aerial mycelium, and spores).
(§2) Cryovials of WCBs were thawed at room temperature and used to inoculate a VSP medium for Nonomuraea spp. and Actinoplanes spp. or YEME for Streptomyces spp. in the presence or the absence of GPAs. The strains were grown to exponential phase (approximately 72 h) at 28 °C with shaking. The mycelium was harvested by centrifugation, suspended in 0.9% (w/v) NaCl, and fragmented by sonication with a Vibracell Albra sonicator 400 W [26]. […] The plates were dried and then incubated at 28 °C. MIC values were determined as the lowest antibiotic concentrations that inhibited visible growth after 10 days of incubation.

[2] = test system: S. coelicolor
Experimental: as §1, §2

[3] = test system: N. gerenzanensis pST30; test: MIC on solid media, N. gerenzanensis pST30; type: cell-based, Nonomuraea gerenzanensis; conditions: N. gerenzanensis pST30 (vanRSHAX cluster from A. teichomyceticus); V0.1 agar plates, 28 °C, 10 days; average of three independent experiments
Experimental: as §1, §2

[4] = test system: N. gerenzanensis; conditions: for MIC, non-induced: Nonomuraea gerenzanensis non-induced
Experimental: as §1, §2

[5] = test system: A. teichomyceticus; conditions: for MIC, teicoplanin-induced: Actinoplanes teichomyceticus + 10 µg/ml teicoplanin; for MIC, non-induced: Actinoplanes teichomyceticus non-induced
Experimental: as §1, §2

[6] = test system: VanX activity in N. gerenzanensis pST30; type: cell-based, Nonomuraea gerenzanensis; conditions: for Growth time within which VanX activity responds to the inducer: N. gerenzanensis pST30, subinhibitory concentrations (vancomycin 10, teicoplanin 1.75, A40926 10 µg/mL), teicoplanin to less extent; for Effect on VanX activity (cytoplasmic fraction): N. gerenzanensis pST30 grown with 10 µg/mL vancomycin, 1.75 µg/mL teicoplanin, 10 µg/mL A40926
Experimental: (§3) The D,D-dipeptidase activity of VanX (Figure 1) and the D,D-carboxypeptidase activity of VanY (Figure 2) were measured by determining the amount of D-Ala released from the hydrolysis of the D-Ala-D-Ala dipeptide and of the Nε-acetyl-L-Lys-D-Ala-D-Ala tripeptide, respectively. D-Ala release was measured by using a D-amino acid oxidase coupled to a peroxidase [25, 31].
(§4) VanX-specific activity is defined as the number of nanomoles of D-Ala released by the hydrolysis of D-Ala-D-Ala dipeptide at 37 °C per minute per milligram of protein contained in cytoplasmic fractions.
(§5) S. coelicolor A3(2), its ΔvanRS mutant, A. teichomyceticus ATCC 31121, N. gerenzanensis ATCC 39727, and N. gerenzanensis pST30 were grown as described above. […] Antibiotics were added to the cultures at the moment of inoculation using concentrations calculated as the half-point of MICs (see below and Table 1), except for vancomycin (10 µg/mL) in S. coelicolor A3(2), as reported by Kwun et al. [10].
Cells were harvested by centrifugation at 3600× g for 20 min at 4 °C, and then they were suspended in 2 mL of 0.9% (w/v) NaCl per gram of cells (wet weight). All of the following manipulations were conducted at 0 to 4 °C. The mycelium was fragmented by sonication with a Sonics Vibracell VCX 130. Sonication was carried out for 5 min on ice, with cycles of 30 s with an amplitude of 90% (90% of 60 Hz), with breaks of 10 s. The samples were then centrifuged at 39,000× g for 15 min, and the supernatants (cytoplasmic fractions) were collected. An alkaline extraction of the pellets (cell debris and membrane fractions) was carried out by adapting a protocol developed previously for extracting membrane-bound proteins [25, 36]. The sedimented pellets were resuspended in ice-cold distilled water containing proteinase inhibitors (0.19 mg/mL phenylmethanesulfonyl fluoride and 0.7 µg/mL pepstatin, both purchased from Sigma-Aldrich), and then, immediately before centrifugation (28,000× g for 15 min at 4 °C), the pH was adjusted to 12 by adding an appropriate volume of 2.5 N NaOH. Immediately after centrifugation, the supernatants were neutralized to pH 7 by adding 0.5 M sodium acetate (pH 5.4). Enzymatic activities in the supernatant (cytoplasmic fractions) and in the resuspended insoluble fractions (membranes) were assayed as reported previously [36] by measuring the release of D-Ala from commercially available dipeptide (D-Ala-D-Ala, 10 mM; Sigma-Aldrich) and tripeptide (Nε-acetyl-L-Lys-D-Ala-D-Ala, 10 mM; Sigma-Aldrich).

[7] = test system: VanX activity in S. coelicolor; conditions: vancomycin 10 µg/mL
Experimental: as §3, §4, §5
Cells were harvested by centrifugation at 3600× g for 20 min at 4 °C, and then they were suspended in 2 mL of 0.9% (w/v) NaCl per gram of cells (wet weight). All of the following manipulations were conducted at 0 to 4 °C. The mycelium was fragmented by sonication with a Sonics Vibracell VCX 130. Sonication was carried out for 5 min on ice, with cycles of 30 s with an amplitude of 90% (90% of 60 Hz), with breaks of 10 s. […]

[8] = test system: VanY activity in N. gerenzanensis pST30; type: cell-based, Nonomuraea gerenzanensis; conditions: for Effect on VanY activity (membrane extracts): N. gerenzanensis pST30 grown with subinhibitory concentrations of GPAs added at inoculum
Experimental: To determine the correlation between the antimicrobial activity of the GPAs and their ability to induce the van resistance system in actinomycetes, we followed the enzyme activities corresponding to either VanX or VanY peptidases in cells growing in liquid culture in the presence or absence of subinhibitory concentrations of GPAs (Figure 1 and Figure 2). The D,D-dipeptidase activity of VanX (Figure 1) and the D,D-carboxypeptidase activity of VanY (Figure 2) were measured by determining the amount of D-Ala released from the hydrolysis of the D-Ala-D-Ala dipeptide and of the Nε-acetyl-L-Lys-D-Ala-D-Ala tripeptide, respectively. D-Ala release was measured by using a D-amino acid oxidase coupled to a peroxidase [25, 31].
Figure 2 VanY activity in N. gerenzanensis and N. gerenzanensis pST30 grown in the absence (dotted line) or in the presence (continuous line) of subinhibitory concentrations of GPAs added at the moment of inoculum (see material and methods). VanY-specific activity is defined as the number of nanomoles of D-Ala released by the hydrolysis of Nε-acetyl-L-Lys-D-Ala-D-Ala tripeptide at 37 °C per minute per milligram of protein contained in membrane extracts. […] The values represent the averages from three independent experiments, with a standard deviation of <5%.
as §5
Cells were harvested by centrifugation at 3600× g for 20 min at 4 °C, and then they were suspended in 2 mL of 0.9% (w/v) NaCl per gram of cells (wet weight). All of the following manipulations were conducted at 0 to 4 °C. The mycelium was fragmented by sonication with a Sonics Vibracell VCX 130. […]

[9] = S. coelicolor, MS agar plates, 10^7 CFU sonicated hyphae, 28 °C, 10 days, average of three independent experiments
[10] = N. gerenzanensis, V0.1 agar plates, 10^7 CFU sonicated hyphae, 28 °C, 10 days, average of three independent experiments
[11] = Nonomuraea gerenzanensis + 2 µg/ml A40926, after 48h of growth, average of three independent experiments
[12] = Nonomuraea gerenzanensis + 2 µg/ml A40926, after 72h of growth, average of three independent experiments
[13] = after 48h of growth, average of three independent experiments
[14] = after 72h of growth, average of three independent experiments
[15] = A. teichomyceticus, V0.1 agar plates, 10^7 CFU sonicated hyphae, 28 °C, 10 days, average of three independent experiments

Molecule	Minimal inhibitory concentration (MIC) [1]	Minimal inhibitory concentration (MIC) ([2]; 72 h)	Minimal inhibitory concentration (MIC) [3]	Minimal inhibitory concentration (MIC) ([4]; 72 h)	Minimal inhibitory concentration (MIC) ([5]; 72 h)	Growth time within which VanX activity responds to the inducer [6]	Effect on VanX activity (cytoplasmic fraction) [6]	Change of level of VanX enzyme activity within the first 24 h from the induction [7]	Effect on VanY activity (membrane extracts) [8]	Growth time at which induced VanY activity reaches its maximum value ([8]; N. gerenzanensis pST30 induced by vancomycin)	Minimal inhibitory concentration (MIC) [2, 9]	Minimal inhibitory concentration (MIC) [4, 10]	MIC, A40926-induced [4, 11]	MIC, A40926-induced [4, 12]	MIC, non-induced [4, 13]	MIC, non-induced [4, 14]	Minimal inhibitory concentration (MIC) [5, 15]	MIC, teicoplanin-induced [5, 14]	MIC, non-induced [5, 13]	MIC, non-induced [5, 14]
CC[C@H](C)[C@H](N)C1=N[C@H](C(=O)N[C@@H](CC(C)C)C(=O)N[C@H](CCC(=O)O)C(=O)N[C@H](C(=O)N[C@H]2CCCCNC(=O)[C@H](CC(N)=O)NC(=O)[C@@H](CC(=O)O)NC(=O)[C@H](Cc3cnc[nH]3)NC(=O)[C@@H](Cc3ccccc3)NC(=O)[C@H]([C@@H](C)CC)NC(=O)[C@@H](CCCN)NC2=O)[C@@H](C)CC)CS1 [Bacitracin] ({Ileψ(thiazoline)Cys}-L[dE]IK[dOrn]I[dF]H[dD]N; lactam 4-C (inferred); N-terminus assumed)	0.9 ± 0.035 µg/mL (≈ 0.633 µM)	0.9 ± 0.05 µg/mL (≈ 0.633 µM)	20 ± 1.2 µg/mL (≈ 14.1 µM)	20 ± 1.3 µg/mL (≈ 14.1 µM)	20 ± 1.15 µg/mL (≈ 14.1 µM)															
CN[C@H](CC(C)C)C(=O)N[C@H]1C(=O)N[C@@H](CC(N)=O)C(=O)N[C@H]2C(=O)N[C@H]3C(=O)N[C@H](C(=O)N[C@H](C(=O)O)c4cc(O)cc(O)c4-c4cc3ccc4O)[C@H](O)c3ccc(c(Cl)c3)Oc3cc2cc(c3O[C@@H]2O[C@H](CO)[C@@H](O)[C@H](O)[C@H]2O[C@H]2C[C@](C)(N)[C@H](O)[C@H](C)O2)Oc2ccc(cc2Cl)[C@H]1O [Vancomycin]	1.25 ± 0.03 µg/mL (≈ 0.863 µM)		20 ± 1.05 µg/mL (≈ 13.8 µM)			≤ 48 h	induced	doubled	significantly induced	96 h	>100 µg/mL	20 ± 1.6 µg/mL (≈ 13.8 µM)	32 ± 0.9 µg/mL	32 ± 0.8 µg/mL	20 ± 0.8 µg/mL (≈ 13.8 µM)	20 ± 0.5 µg/mL (≈ 13.8 µM)	90 ± 4.2 µg/mL (≈ 62.1 µM)	90 ± 2.1 µg/mL	90 ± 2.5 µg/mL (≈ 62.1 µM)	90 ± 1.6 µg/mL (≈ 62.1 µM)
Ramoplanin	0.9 ± 0.025 µg/mL		20 ± 1.1 µg/mL								0.9 ± 0.045 µg/mL	20 ± 1.2 µg/mL					20 ± 1 µg/mL			
Teicoplanin	1.5 ± 0.02 µg/mL		2.75 ± 0.15 µg/mL			≤ 48 h	induced		comparable to the basal level		1.5 ± 0.025 µg/mL	0.9 ± 0.01 µg/mL	1.2±0.03 g/ml	1.2±0.02 g/ml	0.9±0.01 g/ml	0.9±0.015 g/ml	20 ± 1.5 µg/mL	20±0.85 g/ml	20±1 g/ml	20±0.9 g/ml
